In ChEMBL document CHEMBL1135101, “Combinatorial synthesis of 3-(amidoalkyl) and 3-(aminoalkyl)-2-arylindole derivatives: discovery of potent ligands for a variety of G-protein coupled receptors” (Bioorg Med Chem Lett, 2002):
Blank lines part the entries; values can stand above or below the compound they belong to.

What was measured:
[1] = target: T1, Gonadotropin-releasing hormone receptor (Homo sapiens) (UniProt P30968); test: Binding affinity towards GnRH receptor
T1 sequence (whole entry): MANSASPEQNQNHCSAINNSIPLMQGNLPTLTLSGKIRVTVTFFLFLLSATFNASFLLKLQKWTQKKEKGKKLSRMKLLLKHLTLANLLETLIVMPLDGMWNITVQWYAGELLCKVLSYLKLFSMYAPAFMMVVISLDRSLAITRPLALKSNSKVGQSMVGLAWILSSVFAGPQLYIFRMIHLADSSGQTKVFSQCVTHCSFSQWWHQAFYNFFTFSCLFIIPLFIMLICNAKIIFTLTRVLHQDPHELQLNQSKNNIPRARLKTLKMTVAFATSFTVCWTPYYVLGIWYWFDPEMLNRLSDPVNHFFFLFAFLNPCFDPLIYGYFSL

[2] = target: C-C chemokine receptor type 5 (Homo sapiens) (UniProt P51681); test: Binding affinity towards CCR5 receptor
Sequence of C-C chemokine receptor type 5 (Homo sapiens) (P51681 whole entry, looked up): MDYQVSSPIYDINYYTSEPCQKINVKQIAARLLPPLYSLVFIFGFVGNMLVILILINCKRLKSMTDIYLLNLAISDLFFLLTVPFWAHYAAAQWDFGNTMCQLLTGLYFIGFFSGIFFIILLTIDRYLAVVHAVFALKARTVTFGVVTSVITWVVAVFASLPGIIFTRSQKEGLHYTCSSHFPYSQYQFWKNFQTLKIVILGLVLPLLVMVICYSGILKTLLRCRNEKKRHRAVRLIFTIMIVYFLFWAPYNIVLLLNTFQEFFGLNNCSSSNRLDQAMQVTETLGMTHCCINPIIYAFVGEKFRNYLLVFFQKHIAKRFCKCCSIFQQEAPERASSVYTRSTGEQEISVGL

[3] = target: T2, C-C chemokine receptor type 3 (Homo sapiens) (UniProt P51677); test: Binding affinity towards CCR3 receptor
T2 sequence (whole entry): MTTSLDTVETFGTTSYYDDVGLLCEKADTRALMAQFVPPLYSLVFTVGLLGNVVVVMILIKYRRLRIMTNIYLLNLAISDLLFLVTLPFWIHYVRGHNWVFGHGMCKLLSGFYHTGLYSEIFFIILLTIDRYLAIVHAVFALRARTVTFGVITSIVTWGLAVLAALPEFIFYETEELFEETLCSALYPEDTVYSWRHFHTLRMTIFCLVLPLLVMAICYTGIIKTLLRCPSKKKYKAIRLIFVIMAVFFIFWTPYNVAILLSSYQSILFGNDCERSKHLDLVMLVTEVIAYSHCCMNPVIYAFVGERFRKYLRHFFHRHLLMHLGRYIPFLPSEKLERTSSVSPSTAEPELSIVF

[4] = target: T3, C-X-C chemokine receptor type 3 (Homo sapiens) (UniProt P49682); test: Binding affinity towards CXCR3 receptor
T3 sequence (whole entry): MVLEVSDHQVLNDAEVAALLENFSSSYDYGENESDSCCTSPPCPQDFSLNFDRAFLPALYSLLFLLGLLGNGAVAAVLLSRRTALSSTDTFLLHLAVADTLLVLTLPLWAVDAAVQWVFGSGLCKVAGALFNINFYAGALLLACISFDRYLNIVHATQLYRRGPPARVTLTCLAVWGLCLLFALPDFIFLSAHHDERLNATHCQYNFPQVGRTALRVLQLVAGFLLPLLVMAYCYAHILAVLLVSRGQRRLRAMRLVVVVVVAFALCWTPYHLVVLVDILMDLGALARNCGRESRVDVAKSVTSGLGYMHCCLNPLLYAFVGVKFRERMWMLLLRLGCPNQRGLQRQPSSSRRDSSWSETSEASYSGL

[5] = target: C-X-C chemokine receptor type 4 (Homo sapiens) (UniProt P61073); test: Binding affinity towards CXCR4 receptor
Sequence of C-X-C chemokine receptor type 4 (Homo sapiens) (P61073 whole entry): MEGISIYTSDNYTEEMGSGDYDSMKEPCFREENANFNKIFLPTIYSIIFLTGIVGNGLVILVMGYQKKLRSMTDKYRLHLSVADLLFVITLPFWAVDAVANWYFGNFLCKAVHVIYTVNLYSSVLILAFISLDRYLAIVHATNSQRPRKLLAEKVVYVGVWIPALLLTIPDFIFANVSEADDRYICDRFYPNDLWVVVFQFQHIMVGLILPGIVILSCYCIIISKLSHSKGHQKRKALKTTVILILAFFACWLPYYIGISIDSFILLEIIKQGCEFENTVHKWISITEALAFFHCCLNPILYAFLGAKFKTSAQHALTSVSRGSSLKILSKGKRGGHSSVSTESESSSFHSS

[6] = target: T4, C-C chemokine receptor type 1 (Homo sapiens) (UniProt P32246); test: Binding affinity towards CCR1 receptor
T4 sequence (whole entry): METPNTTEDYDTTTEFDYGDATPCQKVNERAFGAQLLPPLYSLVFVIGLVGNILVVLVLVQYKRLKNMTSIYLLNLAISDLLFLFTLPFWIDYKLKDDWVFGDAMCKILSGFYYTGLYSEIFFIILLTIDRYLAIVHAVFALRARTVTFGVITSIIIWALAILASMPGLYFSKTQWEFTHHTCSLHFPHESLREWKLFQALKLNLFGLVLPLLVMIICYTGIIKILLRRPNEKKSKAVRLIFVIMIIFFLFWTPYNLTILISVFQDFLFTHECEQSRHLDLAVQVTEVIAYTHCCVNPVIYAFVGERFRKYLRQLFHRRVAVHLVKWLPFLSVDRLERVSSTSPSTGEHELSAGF

[7] = target: C-C chemokine receptor type 2 (Homo sapiens) (UniProt P41597); test: Binding affinity towards CCR2 receptor
Sequence of C-C chemokine receptor type 2 (Homo sapiens) (P41597 whole entry, looked up): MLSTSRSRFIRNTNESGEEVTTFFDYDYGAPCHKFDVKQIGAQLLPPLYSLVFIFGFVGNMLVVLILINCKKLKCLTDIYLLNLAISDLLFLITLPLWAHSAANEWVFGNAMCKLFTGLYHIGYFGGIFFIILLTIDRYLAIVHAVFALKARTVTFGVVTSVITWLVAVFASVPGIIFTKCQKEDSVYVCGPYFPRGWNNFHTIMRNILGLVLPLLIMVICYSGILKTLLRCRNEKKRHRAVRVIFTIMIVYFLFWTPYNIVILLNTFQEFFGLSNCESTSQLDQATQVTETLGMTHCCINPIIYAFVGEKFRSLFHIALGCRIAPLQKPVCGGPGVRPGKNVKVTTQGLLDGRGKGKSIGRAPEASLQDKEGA

[8] = target: Substance-P receptor (Homo sapiens) (UniProt P25103); test: Binding affinity towards human NK1 receptor
Sequence of Substance-P receptor (Homo sapiens) (P25103 whole entry): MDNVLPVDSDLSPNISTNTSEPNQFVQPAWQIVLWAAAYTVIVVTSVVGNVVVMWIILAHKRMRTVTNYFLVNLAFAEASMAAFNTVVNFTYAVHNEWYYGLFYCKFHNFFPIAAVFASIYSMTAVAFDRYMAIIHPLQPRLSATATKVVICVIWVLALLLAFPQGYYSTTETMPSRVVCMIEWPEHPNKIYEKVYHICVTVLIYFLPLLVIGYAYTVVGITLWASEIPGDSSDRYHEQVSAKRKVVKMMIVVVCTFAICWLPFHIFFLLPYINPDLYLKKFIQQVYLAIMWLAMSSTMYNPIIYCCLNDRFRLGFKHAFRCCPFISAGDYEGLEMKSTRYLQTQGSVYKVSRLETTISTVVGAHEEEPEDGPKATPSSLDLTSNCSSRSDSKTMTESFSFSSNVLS

[9] = target: T5, Substance-K receptor (Homo sapiens) (UniProt P21452); test: Binding affinity towards NK2 receptor
T5 sequence (whole entry): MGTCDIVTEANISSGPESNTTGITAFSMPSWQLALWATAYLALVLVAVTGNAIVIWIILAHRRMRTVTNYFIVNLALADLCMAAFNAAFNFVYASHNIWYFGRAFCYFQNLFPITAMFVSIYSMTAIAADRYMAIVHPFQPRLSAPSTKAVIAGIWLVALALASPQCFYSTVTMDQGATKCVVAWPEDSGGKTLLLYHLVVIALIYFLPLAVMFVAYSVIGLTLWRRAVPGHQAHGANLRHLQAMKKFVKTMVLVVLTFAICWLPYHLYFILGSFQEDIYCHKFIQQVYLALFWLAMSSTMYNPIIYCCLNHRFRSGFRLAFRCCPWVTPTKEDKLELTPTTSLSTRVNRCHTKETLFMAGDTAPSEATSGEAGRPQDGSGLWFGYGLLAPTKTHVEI

[10] = target: T6, Neuromedin-K receptor (Homo sapiens) (UniProt P29371); test: Binding affinity towards NK3 receptor
T6 sequence (whole entry): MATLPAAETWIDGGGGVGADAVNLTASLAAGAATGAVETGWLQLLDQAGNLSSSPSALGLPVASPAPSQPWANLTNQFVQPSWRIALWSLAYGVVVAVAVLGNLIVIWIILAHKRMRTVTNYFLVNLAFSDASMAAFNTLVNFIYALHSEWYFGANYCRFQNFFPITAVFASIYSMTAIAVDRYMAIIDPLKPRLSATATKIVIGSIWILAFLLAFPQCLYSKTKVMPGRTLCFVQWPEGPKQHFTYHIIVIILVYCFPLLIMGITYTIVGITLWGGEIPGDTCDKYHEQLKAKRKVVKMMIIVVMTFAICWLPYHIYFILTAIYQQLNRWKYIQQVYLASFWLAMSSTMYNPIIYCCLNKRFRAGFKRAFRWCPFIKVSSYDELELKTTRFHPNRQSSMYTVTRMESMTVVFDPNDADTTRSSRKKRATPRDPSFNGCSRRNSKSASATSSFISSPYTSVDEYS

[11] = target: T7, 5-hydroxytryptamine receptor 1A (Homo sapiens) (UniProt P08908); test: Binding affinity towards 5-hydroxytryptamine 1A receptor
T7 sequence (whole entry): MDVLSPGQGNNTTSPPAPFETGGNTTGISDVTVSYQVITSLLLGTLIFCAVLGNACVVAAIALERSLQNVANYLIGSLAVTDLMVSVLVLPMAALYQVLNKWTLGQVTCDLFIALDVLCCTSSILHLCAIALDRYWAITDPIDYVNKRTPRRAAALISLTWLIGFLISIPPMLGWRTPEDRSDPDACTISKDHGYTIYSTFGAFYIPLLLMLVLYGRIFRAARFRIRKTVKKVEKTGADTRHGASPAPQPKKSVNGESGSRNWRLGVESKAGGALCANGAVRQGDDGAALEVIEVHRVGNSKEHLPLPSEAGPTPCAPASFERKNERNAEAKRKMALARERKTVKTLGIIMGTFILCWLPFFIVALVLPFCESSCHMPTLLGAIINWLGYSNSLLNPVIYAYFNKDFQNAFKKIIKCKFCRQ

[12] = target: 5-hydroxytryptamine receptor 2A (Homo sapiens) (UniProt P28223); test: Binding affinity towards 5-hydroxytryptamine 2A receptor
Sequence of 5-hydroxytryptamine receptor 2A (Homo sapiens) (P28223 whole entry): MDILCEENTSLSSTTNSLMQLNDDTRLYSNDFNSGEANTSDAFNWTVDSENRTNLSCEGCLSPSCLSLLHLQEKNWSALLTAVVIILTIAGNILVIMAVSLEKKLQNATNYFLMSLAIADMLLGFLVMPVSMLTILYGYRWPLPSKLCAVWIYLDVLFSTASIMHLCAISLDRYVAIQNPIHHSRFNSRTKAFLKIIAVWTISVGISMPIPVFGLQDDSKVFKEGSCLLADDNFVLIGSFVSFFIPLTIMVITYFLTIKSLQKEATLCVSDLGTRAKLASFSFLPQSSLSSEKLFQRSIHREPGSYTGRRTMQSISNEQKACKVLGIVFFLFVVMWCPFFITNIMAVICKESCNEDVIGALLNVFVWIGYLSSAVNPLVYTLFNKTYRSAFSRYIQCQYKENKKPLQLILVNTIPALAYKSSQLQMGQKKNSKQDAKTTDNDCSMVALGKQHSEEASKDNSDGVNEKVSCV

[13] = target: T8, 5-hydroxytryptamine receptor 2C (Homo sapiens) (UniProt P28335); test: Binding affinity towards 5-hydroxytryptamine 2C receptor
T8 sequence (whole entry): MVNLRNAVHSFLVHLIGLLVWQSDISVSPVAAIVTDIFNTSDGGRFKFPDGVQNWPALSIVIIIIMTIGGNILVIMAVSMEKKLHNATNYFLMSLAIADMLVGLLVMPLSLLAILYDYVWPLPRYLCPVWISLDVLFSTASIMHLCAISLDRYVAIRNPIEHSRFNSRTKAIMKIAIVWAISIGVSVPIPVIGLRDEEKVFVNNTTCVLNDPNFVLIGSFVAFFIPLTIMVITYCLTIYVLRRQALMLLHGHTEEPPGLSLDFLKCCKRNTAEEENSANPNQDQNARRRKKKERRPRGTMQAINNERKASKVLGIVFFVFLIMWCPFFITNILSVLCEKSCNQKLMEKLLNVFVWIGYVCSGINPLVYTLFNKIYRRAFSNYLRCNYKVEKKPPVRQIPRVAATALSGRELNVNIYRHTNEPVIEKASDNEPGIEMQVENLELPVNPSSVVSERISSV

[14] = target: 5-hydroxytryptamine receptor 5A (Homo sapiens) (UniProt P47898); test: Binding affinity towards 5-HT5a receptor
Sequence of 5-hydroxytryptamine receptor 5A (Homo sapiens) (P47898 whole entry): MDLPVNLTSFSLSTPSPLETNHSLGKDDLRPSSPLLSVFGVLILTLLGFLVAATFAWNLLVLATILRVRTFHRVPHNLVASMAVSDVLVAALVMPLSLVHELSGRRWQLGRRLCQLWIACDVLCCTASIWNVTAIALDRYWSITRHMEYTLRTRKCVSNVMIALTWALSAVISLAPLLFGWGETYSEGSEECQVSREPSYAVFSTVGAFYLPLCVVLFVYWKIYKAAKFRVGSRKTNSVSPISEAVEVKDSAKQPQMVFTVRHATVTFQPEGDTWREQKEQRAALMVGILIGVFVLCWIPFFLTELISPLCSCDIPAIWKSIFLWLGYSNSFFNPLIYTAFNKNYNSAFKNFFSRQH

[15] = target: 5-hydroxytryptamine receptor 7 (Homo sapiens) (UniProt P34969); test: Binding affinity towards 5-hydroxytryptamine 7 receptor
Sequence of 5-hydroxytryptamine receptor 7 (Homo sapiens) (P34969 whole entry): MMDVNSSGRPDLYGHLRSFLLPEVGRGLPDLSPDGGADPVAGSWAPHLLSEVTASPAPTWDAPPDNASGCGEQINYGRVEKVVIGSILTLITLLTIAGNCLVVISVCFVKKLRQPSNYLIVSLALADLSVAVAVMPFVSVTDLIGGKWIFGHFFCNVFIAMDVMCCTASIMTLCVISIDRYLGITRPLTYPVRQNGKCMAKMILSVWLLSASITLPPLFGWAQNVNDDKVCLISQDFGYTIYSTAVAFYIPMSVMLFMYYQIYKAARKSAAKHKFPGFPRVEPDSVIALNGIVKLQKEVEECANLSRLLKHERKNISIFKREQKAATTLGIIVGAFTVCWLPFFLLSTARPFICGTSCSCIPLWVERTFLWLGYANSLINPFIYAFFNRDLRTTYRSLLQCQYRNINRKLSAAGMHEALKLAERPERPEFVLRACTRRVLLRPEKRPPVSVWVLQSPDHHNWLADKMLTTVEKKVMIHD

[16] = target: 5-hydroxytryptamine receptor 6 (Homo sapiens) (UniProt P50406); test: Binding affinity towards human 5-hydroxytryptamine 6 receptor
Sequence of 5-hydroxytryptamine receptor 6 (Homo sapiens) (P50406 whole entry): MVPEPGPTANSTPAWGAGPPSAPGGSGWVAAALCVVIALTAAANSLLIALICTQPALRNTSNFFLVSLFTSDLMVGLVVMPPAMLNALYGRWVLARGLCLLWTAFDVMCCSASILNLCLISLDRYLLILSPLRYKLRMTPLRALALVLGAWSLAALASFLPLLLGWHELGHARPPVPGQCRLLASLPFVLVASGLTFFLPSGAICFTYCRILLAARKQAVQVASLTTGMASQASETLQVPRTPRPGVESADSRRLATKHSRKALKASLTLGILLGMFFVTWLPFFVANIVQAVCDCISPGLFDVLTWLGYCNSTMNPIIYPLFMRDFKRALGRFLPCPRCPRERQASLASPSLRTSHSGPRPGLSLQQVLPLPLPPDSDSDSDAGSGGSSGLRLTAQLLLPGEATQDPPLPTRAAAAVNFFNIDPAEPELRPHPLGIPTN

[17] = target: T9, Neuropeptide Y receptor type 1 (Homo sapiens) (UniProt P25929); test: Binding affinity towards NPY1 receptor
T9 sequence (whole entry): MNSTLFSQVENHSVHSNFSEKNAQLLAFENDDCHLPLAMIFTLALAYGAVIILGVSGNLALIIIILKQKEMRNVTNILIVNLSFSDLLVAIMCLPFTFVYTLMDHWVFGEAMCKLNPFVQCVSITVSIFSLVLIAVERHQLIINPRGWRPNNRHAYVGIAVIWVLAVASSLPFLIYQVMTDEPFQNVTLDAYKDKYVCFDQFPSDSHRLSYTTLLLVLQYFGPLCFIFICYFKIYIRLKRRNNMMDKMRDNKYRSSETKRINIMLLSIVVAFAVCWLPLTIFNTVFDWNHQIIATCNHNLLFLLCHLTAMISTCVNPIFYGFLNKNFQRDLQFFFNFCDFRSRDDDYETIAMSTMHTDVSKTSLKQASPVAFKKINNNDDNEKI

[18] = target: T10, Neuropeptide Y receptor type 5 (Homo sapiens) (UniProt Q15761); test: Binding affinity towards NPY5 receptor
T10 sequence (whole entry): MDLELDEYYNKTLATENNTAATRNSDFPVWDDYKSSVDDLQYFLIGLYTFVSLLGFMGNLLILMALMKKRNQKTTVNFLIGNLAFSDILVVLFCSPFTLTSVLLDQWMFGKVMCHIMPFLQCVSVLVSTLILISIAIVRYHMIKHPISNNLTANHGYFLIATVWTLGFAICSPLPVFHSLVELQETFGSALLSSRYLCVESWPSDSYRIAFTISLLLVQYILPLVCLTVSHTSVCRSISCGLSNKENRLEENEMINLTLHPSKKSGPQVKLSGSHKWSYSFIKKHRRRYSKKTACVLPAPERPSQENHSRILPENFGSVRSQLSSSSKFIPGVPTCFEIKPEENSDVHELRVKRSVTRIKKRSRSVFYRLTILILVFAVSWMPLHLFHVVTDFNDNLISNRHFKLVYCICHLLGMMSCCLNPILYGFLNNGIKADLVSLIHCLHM

[19] = target: Melanocortin receptor 4 (Homo sapiens) (UniProt P32245); test: Binding affinity towards MCR-4 receptor
Sequence of Melanocortin receptor 4 (Homo sapiens) (P32245 whole entry): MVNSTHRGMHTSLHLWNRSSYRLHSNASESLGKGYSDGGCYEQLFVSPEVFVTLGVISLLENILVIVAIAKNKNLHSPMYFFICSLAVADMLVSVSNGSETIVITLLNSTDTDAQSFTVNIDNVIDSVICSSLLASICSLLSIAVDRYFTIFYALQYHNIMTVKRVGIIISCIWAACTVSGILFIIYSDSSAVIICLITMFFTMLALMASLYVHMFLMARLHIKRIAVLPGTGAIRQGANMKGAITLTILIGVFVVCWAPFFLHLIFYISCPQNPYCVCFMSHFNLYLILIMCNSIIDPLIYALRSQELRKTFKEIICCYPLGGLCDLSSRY

Activity [1]: 52 nM
SMILES: CCOC(=O)C(C)(C)c1ccc2[nH]c(-c3cc(C)cc(C)c3)c(CCCN3CCC(O)(c4ccccc4)CC3)c2c1

Activity [2]: 1190 nM | Activity [3]: 920 nM | Activity [4]: > 10 µM | Activity [5]: 1520 nM | Activity [6]: > 10 µM | Activity [7]: > 10 µM
SMILES: Brc1ccc(-c2[nH]c3ccc4ccccc4c3c2CCCNC2CCC(c3ccccc3)C2)cc1 (stereo not drawn)

Activity [8]: 0.8 nM | Activity [9]: > 10 µM | Activity [10]: > 10 µM
SMILES: COc1ccccc1N1CCN(C(=O)CCc2c(-c3ccc(Br)cc3)[nH]c3ccc(C)cc23)CC1

Activity [11]: > 1 µM | Activity [12]: 10 nM | Activity [13]: 60 nM | Activity [14]: > 1 µM | Activity [15]: > 1 µM | Activity [16]: 635 nM
SMILES: Brc1ccc(-c2[nH]c3cccc(-c4ccccc4)c3c2CCCN2CCCC2)cc1

Activity [17]: > 10 µM | Activity [18]: 0.8 nM
SMILES: CC(NCCCc1c(-c2cccc(Br)c2)[nH]c2ccccc12)c1ccc(O)cc1 (stereo not drawn)

Activity [19]: 612 nM
SMILES: Cc1ccc2[nH]c(-c3ccc(Br)cc3)c(CCCCCNC3CCCCC3)c2c1

Activity [11]: > 1 µM | Activity [14]: > 1 µM | Activity [15]: 0.3 µM | Activity [16]: 0.7 nM
SMILES: CN(C)CCCc1c(-c2cccc(Br)c2)[nH]c2ccccc12
